In the METLIN SMRT retention time set (Domingo-Almenara et al. 2019):

Test: gradient 5% acetonitrile 3 min, to 50% in 2 min, to 85% in 15 min, held 3 min, 100 µL/min
Conditions: column: Zorbax Extend-C18 2.1 x 50 mm; eluents: water / acetonitrile, 0.1% formic acid
In short: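 Each retention time is based on an adduct peak selected computationally and verified by manual inspection. Measurements used HPLC–quadrupole time-of-flight mass spectrometry in positive and negative ionization mode on mixtures of ~100 pure standards. Chromatography ran on a Zorbax Extend-C18 column (2.1 × 50 mm, 1.8 μm) at 100 μL/min with water and acetonitrile, each containing 0.1% formic acid, and dead and dwell volumes of 40 μL and 900 μL.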

Structure (SMILES)	RP-LC retention time
O=C(Cn1c(=O)c2cc(C3CC3)nn2c2ncccc21)Nc1ccc(F)cc1F	779 s
CCC(C)NC(=O)N1CCn2nnc(CCC(=O)N3CCOCC3)c2C1 (stereo unspecified)	598 s
COc1ccc(Cl)cc1CC1C(=O)Nc2ccccc21 (stereo unspecified)	921 s
O=C(Nc1nnc(C2=COCCO2)o1)c1cc2cc([N+](=O)[O-])ccc2s1	759 s
Cc1ccc(NC(=O)N2C[C@@H](F)C[C@H]2C(=O)N2CCCCC2)c(C)c1	732 s
CCN(CC)CCSc1ccc(C(=O)N2CCN(c3ncccn3)CC2)cn1	600 s
CCc1noc(NC(C)=O)c1-c1ccc(C)c(S(=O)(=O)Nc2ccc(F)cc2C)c1	848 s
O=C1CCCC2=C1C(c1ccco1)N(C(=O)CCC(=O)N1CCOCC1)c1ccccc1N2 (stereo unspecified)	648 s
O=C(CSc1nnc(-c2ccccc2F)o1)N1CCCc2ccccc21	872 s
COc1ccc(-c2noc(C3CC(=O)N(c4ccc(Cl)cc4)C3)n2)cc1OC (stereo unspecified)	950 s
Cc1ccc(CC(=O)Nc2ccc(-c3nc(Cn4nc(C)cc4C)c(C)o3)cc2)cc1	559 s
O=C(NC1CC1)[C@@H]1C[C@H](Oc2ccccc2)CN1C(=O)c1n[nH]c(=O)c2ccccc12	685 s
COc1cc([C@@H]2c3cc4c(cc3[C@H](O)[C@@H](CO)[C@@H]2C(=O)NCc2ccccc2)OCO4)cc(OC)c1OC	700 s
O=C(CN1CCCC(COCc2ccccc2)C1)Nc1nccs1 (stereo unspecified)	570 s
Cn1c(C(=O)N2CCN(c3cccc(Cl)c3)CC2)cc2sccc21	1090 s
Cn1cccc1C(=O)C(=O)Nc1ccc(C#N)cc1	872 s
Cc1nc(-c2ccc(N3CCN(C(=O)COc4ccc(F)cc4)CC3)nc2)sc1C	880 s
CCCCn1c(=O)c2ccccc2n(Cc2nc(-c3cc(OC)c(OC)c(OC)c3)no2)c1=O	1080 s
CC(C)COc1ccc(C(=O)N(Cc2ccc(Br)o2)C2CCS(=O)(=O)C2)cc1 (stereo unspecified)	1050 s
COC(=O)C1C(=O)C2=C(CC1C)NC(=O)CC2c1cccc(Cl)c1 (stereo unspecified)	773 s
COC(=O)c1sccc1NC(=O)N1CCc2c([nH]c3ccccc23)C1c1ccc(F)cc1 (stereo unspecified)	1300 s
N#CCCSc1ccccc1NC(=O)c1ccc([N+](=O)[O-])s1	846 s
CCOc1ccc(NC(=O)CSc2nnc3c4cc(-c5ccc(C)c(C)c5)nn4ccn23)cc1	973 s
O=C(CSc1nc2ncccc2[nH]1)Nc1ccc(Br)cc1F	720 s

More lines, now with the values ahead:

RP-LC retention time	Structure (SMILES)
977 s	Cc1oc(C2CCN(S(=O)(=O)c3ccc(Cl)cc3)CC2)nc1C(=O)N1CCCC1
643 s	CCC1CN(C(=O)N2CCC(C(=O)NCCCN3CCCCC3)CC2)c2ccccc2O1 (stereo unspecified)
738 s	Cc1c(Cl)cccc1NC(=O)N1CCCC1c1nncn1-c1ccccc1 (stereo unspecified)
887 s	Cc1ccccc1CNC(=O)c1cn(C)nc1S(=O)(=O)N1CCSCC1
832 s	CCc1nc2onc(C)c2c(=O)n1CC(=O)NCC(C)c1ccccc1 (stereo unspecified)
645 s	O=C(c1ccc(CS(=O)(=O)c2cccc(C(F)(F)F)c2)o1)N1CCN(c2ccccn2)CC1
727 s	COCc1cc2nn(CC(=O)NC3CCCC3)c(=O)n2c(-c2ccccc2)n1
742 s	Cc1ccc(CN2CCN(CC(=O)Nc3ccc4c(c3)OCO4)C(=O)C2=O)cc1
948 s	O=C(C1CCC1)N1CCc2sc(S(=O)(=O)Nc3ccc(F)c(Cl)c3)cc2C1
773 s	Cc1ccc(NC(=O)NCC2CCOCC2)cc1Cl
766 s	COc1ccc(S(=O)(=O)N2CCCC(C(=O)N3CCOCC3)C2)cc1Cl (stereo unspecified)
925 s	COCCN1C(=O)c2ccccc2C(C(=O)NCc2ccc(Cl)cc2)C12CCCC2 (stereo unspecified)
